In data set [1] the target is T1, NLRP3 (Homo sapiens, UniProt Q96P20). The data set can be described thus: Human whole blood IL1β release assay. It counts as cell-based. Particulars: LPS 1 μg/ml, nigericin 10 μM, IL-1β AlphaLisa, 10 μM top dose (Example 2: top dose of 30 μM), read-out: HWB IC50. On the procedure: For systemic delivery, the ability to inhibit NLRP3 when the compounds are present within the bloodstream is of great importance. For this reason, the NLRP3 inhibitory activity of a number of compounds in human whole blood was investigated in accordance with the following protocol.
Human whole blood in sodium-heparin or lithium-heparin tubes was obtained from healthy donors from a volunteer donor panel. • 1. Plate out 80 μl of whole blood containing 1 μg/ml of LPS in 96-well, clear bottom cell culture plate (Corning #3585) • 2. Add 10 μl compound (8 points half-log dilution with 10 μM top dose, unless stated otherwise) or vehicle (DMSO 0.1% FAC) to the appropriate wells • 3. Incubate for 3 hrs at 37° C., 5% CO2 • 4. Add 10 μl nigericin (Sigma #N7143) (10 μM FAC) to all wells • 5. Incubate for 1 hr at 37° C., 5% CO2 • 6. At the end of the incubation period, spin plates at 300×g for 5 mins to pellet cells and remove 20 μl of supernatant and add to 96-well v-bottom plates for IL-1β analysis (note: these plates containing the supernatants can be stored at −80° C. to be analysed at a later date) • 7. IL-1β was measured according to the manufacturer protocol (Perkin Elmer-AlphaLisa IL-1 Kit AL220F-5000) • 8. IC50 data is fitted to a non-linear regression equation (log inhibitor vs response-variable slope 4-parameters)

In data set [2] the target is T1, NLRP3. The data set can be described thus: THP-1 cells pyroptosis assay. In kind it is cell-based. Also noted: Seed THP-1 cells (25,000 cells/well) containing 1.0 μg/ml LPS; host or cells: THP-1. Particulars: LPS 1.0 μg/ml, nigericin 5 μM, resazurin readout, 10 μM top dose (Example 2: top dose of 30 μM). Summed up:
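Pyroptosis induced by 5 μM nigericin (1 h) in LPS-primed (1 μg/ml) THP-1 cells, 25,000/well in serum-free RPMI, after 3 h compound pre-treatment (8 points, 10 μM top unless stated). Surviving cells measured with 100 μM resazurin, Ex 560/Em 590; IC50 via variable-slope 4-parameter regression.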

A short description of data set [3]: PK, intravenous administration. It counts as in vivo. The note with it: rat, plasma, male Sprague Dawley rats, dose about 1 mg/kg; for Vd: read-out: Vdss. On the procedure:
Pharmacokinetic parameters were determined in male Sprague Dawley rats (Vital River Laboratory Animal Technology Co Ltd, Beijing, China, 6-9 weeks old). Animals were maintained under a 12 h light/dark cycle. Animals had free access to food and water, except that orally dosed animals were food deprived overnight prior to the study.
For intravenous administration, compounds were formulated as a solution (in DMSO:water [10:90] or in DMSO:PBS [10:90]) in 2 mL/kg dosing volume and administered via tail vein. For oral administration, compounds were formulated as a solution (in 0.5% methylcellulose in water) in […] dosing volume and administered orally.
Serial blood samples (about 200 μL) were taken from each animal at each of 8 time-points post dose ([…], 0.25, 0.5, 1, 2, 4, 8 and 24 h). Samples were held on ice for no longer than 30 minutes before centrifugation (5,696 rpm (3,000 g) for 15 minutes) for plasma generation. Plasma was frozen on dry ice prior to bioanalysis. PK parameters were generated from LC-MS/MS data using Phoenix WinNonlin 6.3 software.

Structures are written as SMILES. Bounds are passed on as bounds.

T1 sequence (Q96P20 whole entry): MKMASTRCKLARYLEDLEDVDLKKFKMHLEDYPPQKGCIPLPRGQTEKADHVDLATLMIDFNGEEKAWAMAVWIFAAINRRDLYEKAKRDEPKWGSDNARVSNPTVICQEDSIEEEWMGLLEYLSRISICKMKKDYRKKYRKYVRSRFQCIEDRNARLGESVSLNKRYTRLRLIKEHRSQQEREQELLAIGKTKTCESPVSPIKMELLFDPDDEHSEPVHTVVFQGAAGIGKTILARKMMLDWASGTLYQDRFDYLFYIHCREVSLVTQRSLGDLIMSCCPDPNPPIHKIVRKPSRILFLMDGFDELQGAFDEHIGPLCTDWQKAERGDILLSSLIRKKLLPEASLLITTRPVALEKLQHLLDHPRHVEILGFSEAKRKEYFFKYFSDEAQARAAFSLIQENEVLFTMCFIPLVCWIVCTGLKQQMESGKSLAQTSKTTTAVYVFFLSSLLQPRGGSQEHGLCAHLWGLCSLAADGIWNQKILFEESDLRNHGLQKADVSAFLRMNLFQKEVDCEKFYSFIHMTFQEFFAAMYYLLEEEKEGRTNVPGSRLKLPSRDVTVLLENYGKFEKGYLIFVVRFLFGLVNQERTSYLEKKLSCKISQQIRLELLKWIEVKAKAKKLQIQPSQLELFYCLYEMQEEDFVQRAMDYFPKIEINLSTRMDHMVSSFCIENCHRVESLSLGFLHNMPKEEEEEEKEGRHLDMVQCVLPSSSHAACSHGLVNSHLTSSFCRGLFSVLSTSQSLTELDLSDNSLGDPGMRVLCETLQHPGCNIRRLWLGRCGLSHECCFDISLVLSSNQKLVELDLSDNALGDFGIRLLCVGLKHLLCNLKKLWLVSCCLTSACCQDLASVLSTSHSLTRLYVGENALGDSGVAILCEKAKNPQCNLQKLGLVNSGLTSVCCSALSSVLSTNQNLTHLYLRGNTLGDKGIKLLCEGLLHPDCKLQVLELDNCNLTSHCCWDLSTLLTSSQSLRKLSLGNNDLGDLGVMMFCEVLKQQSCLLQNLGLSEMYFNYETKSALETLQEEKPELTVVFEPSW

Regarding `CC(C)(O)C1CCN(S(=O)(=O)c2nnc(Nc3c4c(cc5c3CCC5)CCC4)[nH]2)CC1` [Example 293, 2-(1-((5-((1,2,3,5,6,7-hexahydro-s-indacen-4-yl)amino)-4H-1,2,4-triazol-3-yl)sulfonyl)piperidin-4-yl)propan-2-ol], the IC50 (as a rule, the point on the concentration scale where inhibition reaches its midpoint) in data set [1] was not above 10000 nM; in data set [2], not above 500 nM.
On the same counts, the results for `CCN(CC)C[C@H]1CCN(S(=O)(=O)c2nnc(Nc3c4c(cc5c3CCC5)CCC4)[nH]2)C1` [Example 144, (R)-5-((3-((diethylamino)methyl)pyrrolidin-1-yl)sulfonyl)-N-(1,2,3,5,6,7-hexahydro-s-indacen-4-yl)-4H-1,2,4-triazol-3-amine] are not above 500 nM and not above 500 nM.
For `O=S(=O)(c1nnc(Nc2c3c(cc4c2CCC4)CCC3)[nH]1)N1CCCC1` [Example 122, N-(1,2,3,5,6,7-hexahydro-s-indacen-4-yl)-5-(pyrrolidin-1-ylsulfonyl)-4H-1,2,4-triazol-3-amine] the same measures were not above 10000 nM and not above 5000 nM.
On the same counts, the results for `O=S(=O)(c1nnc(Nc2c3c(cc4c2CCC4)CCC3)[nH]1)N1CC2(CCN(CCF)C2)C1` [Example 239, 5-((6-(2-fluoroethyl)-2,6-diazaspiro[3.4]octan-2-yl)sulfonyl)-N-(1,2,3,5,6,7-hexahydro-s-indacen-4-yl)-4H-1,2,4-triazol-3-amine] are not above 5000 nM and not above 1000 nM.
On to `CN1CCC2(CCN(S(=O)(=O)c3nnc(Nc4c5c(cc6c4CCC6)CCC5)[nH]3)C2)C1` (centres unmarked) [Example 277, N-(1,2,3,5,6,7-hexahydro-s-indacen-4-yl)-5-((7-methyl-2,7-diazaspiro[4.4]nonan-2-yl)sulfonyl)-4H-1,2,4-triazol-3-amine], for which the IC50 in data set [1] was not above 1000 nM; in data set [2], not above 500 nM.
With `[2H]C([2H])([2H])Oc1cc(-c2ccc3c(c2Nc2nnc(S(=O)(=O)N4CC5(CCN(C)C5)C4)[nH]2)CCC3)ccn1` [Example 196, N-(5-(2-(methoxy-d)pyridin-4-yl)-2,3-dihydro-1H-inden-4-yl)-5-((6-methyl-2,6-diazaspiro[3.4]octan-2-yl)sulfonyl)-4H-1,2,4-triazol-3-amine], the IC50 in data set [1] and in data set [2] was not above 500 nM in each case.
As for `CN1CCOC2(C1)CN(S(=O)(=O)c1nnc(Nc3c4c(cc5c3CCC5)CCC4)[nH]1)C2` [Example 295, N-(1,2,3,5,6,7-hexahydro-s-indacen-4-yl)-5-((8-methyl-5-oxa-2,8-diazaspiro[3-5]nonan-2-yl)sulfonyl)-4H-1,2,4-triazol-3-amine], the IC50 was not above 1000 nM in data set [1] and not above 500 nM in data set [2].
On the same counts, the results for `O=S(=O)(c1nnc(Nc2c3c(cc4c2CCC4)CCC3)[nH]1)N1CCC2(CCN2C2CC2)CC1` [Example 254, 5-((1-cyclopropyl-1,7-diazaspiro[3.5]nonan-7-yl)sulfonyl)-N-(1,2,3,5,6,7-hexahydro-s-indacen-4-yl)-4H-1,2,4-triazol-3-amine] are not above 5000 nM and not above 500 nM.
With `COc1cc(-c2ccc3c(c2Nc2nnc(S(=O)(=O)c4ccccc4C#N)[nH]2)CCC3)ccn1` [Example 310, 2-((5-((5-(2-methoxypyridin-4-yl)-2,3-dihydro-1H-inden-4-yl)amino)-4H-1,2,4-triazol-3-yl)sulfonyl)benzonitrile], in data set [3], the AUC – broadly, concentration integrated over time – was 221 ng·h/mL; the clearance (commonly a measure of how efficiently the substance is removed, as volume per time) was 75.4 mL/min/kg; the half-life (commonly the time in which the quantity being followed falls by half) was 27.5 min; the Vd stood at 1.45 L/kg. This compound registered an IC50 in data set [2] not above 5000 nM.
For `CN1CCC2(C1)CN(S(=O)(=O)c1nnc(Nc3c(-c4ccnc(OC(F)F)c4)ccc4c3CCC4)[nH]1)C2` [Example 213, N-(5-(2-(difluoromethoxy)pyridin-4-yl)-2,3-dihydro-1H-inden-4-yl)-5-((6-methyl-2,6-diazaspiro[3.4]octan-2-yl)sulfonyl)-4H-1,2,4-triazol-3-amine] the same measures were 186 ng·h/mL, 90.6 mL/min/kg, 43.8 min, 4.21 L/kg and not above 500 nM.
For `O=S(=O)(c1ccccc1)c1nnc(Nc2c3c(cc4c2CCC4)CCC3)[nH]1` [Example 40, N-(1,2,3,5,6,7-hexahydro-s-indacen-4-yl)-5-(phenylsulfonyl)-1H-1,2,4-triazol-3-amine] the same measures were 1460 ng·h/mL, 11.4 mL/min/kg, 54 min, 0.54 L/kg and not above 1000 nM.
Consider `Cc1cc(-c2cc(F)cc(C(C)C)c2Nc2nnc(S(=O)(=O)N3CCC(N(C)C)CC3)[nH]2)ccn1` [Example 302, 1-((5-((4-fluoro-2-isopropyl-6-(2-methylpyridin-4-yl)phenyl)amino)-1H-1,2,4-triazol-3-yl)sulfonyl)-N,N-dimethylpiperidin-4-amine], for which, in data set [3], the AUC is 153 ng·h/mL, the clearance stood at 109 mL/min/kg, the half-life is 80.4 min and the Vd is 4.03 L/kg. Besides, the IC50 in data set [2] is not above 5000 nM.
For `Cn1cc(S(=O)(=O)c2nnc(Nc3c4c(cc5c3CCC5)CCC4)[nH]2)cn1` [Example 159, N-(1,2,3,5,6,7-hexahydro-s-indacen-4-yl)-5-((1-methyl-1H-pyrazol-4-yl)sulfonyl)-4H-1,2,4-triazol-3-amine] the same measures were 2250 ng·h/mL, 6.9 mL/min/kg, 55.8 min, 0.38 L/kg and not above 5000 nM.
For `CS(=O)(=O)c1nnc(Nc2c(-c3ccnc(OC4CCCOC4)c3)ccc3c2CCC3)[nH]1` (centres unmarked) [Example 236, 5-(methylsulfonyl)-N-(5-(2-((tetrahydro-2H-pyran-3-yl)oxy)pyridin-4-yl)-2,3-dihydro-1H-inden-4-yl)-4H-1,2,4-triazol-3-amine] the same measures were 3160 ng·h/mL, 5.28 mL/min/kg, 53.5 min, 0.149 L/kg and not above 10000 nM.
On the same counts, the results for `CN1CCC(Oc2cc(-c3ccc4c(c3Nc3nnc(S(C)(=O)=O)[nH]3)CCC4)ccn2)CC1` [Example 235, N-(5-(2-((1-methylpiperidin-4-yl)oxy)pyridin-4-yl)-2,3-dihydro-1H-inden-4-yl)-5-(methylsulfonyl)-4H-1,2,4-triazol-3-amine] are 430 ng·h/mL, 38.7 mL/min/kg, 130 min, 0.935 L/kg and not above 10000 nM.
Turning to `CN1CCOCC12CCN(S(=O)(=O)c1nnc(Nc3c4c(cc5c3CCC5)CCC4)[nH]1)CC2` [Example 296, N-(1,2,3,5,6,7-hexahydro-s-indacen-4-yl)-5-((1-methyl-4-oxa-1,9-diazaspiro[5.5]undecan-9-yl)sulfonyl)-4H-1,2,4-triazol-3-amine], in data set [3], the AUC came to 315 ng·h/mL, the clearance was determined as 52.9 mL/min/kg, the half-life is 35.4 min and the Vd is 1.7 L/kg. Moreover, the IC50 in data set [2] is not above 500 nM.
On the same counts, the results for `CC(C)n1ccc(S(=O)(=O)c2nnc(Nc3c4c(cc5c3CCC5)CCC4)[nH]2)n1` [Example 337, N-(1,2,3,5,6,7-hexahydro-s-indacen-4-yl)-5-((1-isopropyl-1H-pyrazol-3-yl)sulfonyl)-4H-1,2,4-triazol-3-amine] are 981 ng·h/mL, 17 mL/min/kg, 35.7 min, 0.54 L/kg and not above 500 nM.
In data set [2], `O=S(=O)(c1nnc(Nc2c3c(cc4c2CCC4)CCC3)[nH]1)N1CCC2(CCN(C3CC3)C2)CC1` [Example 244, 5-((2-cyclopropyl-2,8-diazaspiro[4.5]decan-8-yl)sulfonyl)-N-(1,2,3,5,6,7-hexahydro-s-indacen-4-yl)-4H-1,2,4-triazol-3-amine] displayed an IC50 not above 5000 nM.

Values taken from patent US20210261512A1, “NOVEL COMPOUNDS” (INFLAZOME LIMITED, priority 2018, published 2021).
